Measurements from patent US10130710B2 (priority 2014, dated 2018).
Where a name gives a salt, the structure may show the parent alone.

Format: physicochemical
Details: Log10(concentration in octanol phase/concentration in aqueous phase)
Text: Incidentally, the octanol-water partition coefficient herein is obtained by adding a target component to be measured into a flask charged with n-octanol and an aqueous buffer of pH 7 or water, shaking the resultant, and performing calculation, in accordance with the following equation, based on active ingredient concentrations in respective phases. Octanol-water partition coefficient=Log10(concentration in octanol phase/concentration in aqueous phase)
Work on CC(C)CCCCCCCOC(=O)C(C)(C)C [isodecyl neopentanoate] yielded a water-octanol partition coefficient of 5.9. Molecule CC(C)CCCCCCOC(=O)CCCCCC(C)C [isononyl isononanoate] has a water-octanol partition coefficient of 6.5. For CCCCCCCCCCCCCC(=O)OC(C)C [isopropyl myristate], the water-octanol partition coefficient was 7.2. Molecule CC(C)CCCCCCCCCCOC(=O)CCCCCC(C)C [isotridecyl isononanoate] has a water-octanol partition coefficient of 9.2. In the case of CC12CC3CC(C)(C1)CC(N)(C3)C2 [memantine hydrochloride, reference compound], the water-octanol partition coefficient is reported as 0.3. CC(C)CCCCCC(=O)OCC(C)(C)COC(=O)CCCCCC(C)C [neopentyl glycol diisononanoate] showed a water-octanol partition coefficient of 7.2. Molecule CCCCCCCCCCCCCC(=O)OCC(CCCCCCCC)CCCCCCCCCC (centres unmarked) [octyldodecyl myristate] has a water-octanol partition coefficient of 16.0. For O.O.O.O.O.O=P([O-])(O)C(O)(Cc1cccnc1)P(=O)(O)O.O=P([O-])(O)C(O)(Cc1cccnc1)P(=O)(O)O.[Na+].[Na+] [risedronate monosodium hemipentahydrate, reference compound], the water-octanol partition coefficient was −5.0. Molecule CC(C)CCCC(C)CCCC(C)CCCCC(C)CCCC(C)CCCC(C)C (centres unmarked) [squalane] has a water-octanol partition coefficient of 14.7. CCCCC(CC)C(=O)OCC(COC(=O)C(CC)CCCC)OC(=O)C(CC)CCCC (centres unmarked) [triethylhexanoin] gave a water-octanol partition coefficient of 8.9. In the case of CCCc1nc(C)c2c(=O)[nH]c(-c3cc(S(=O)(=O)N4CCN(CC)CC4)ccc3OCC)nn12 [verdenafil hydrochloride hydrate, reference compound], the water-octanol partition coefficient is reported as 0.0.
